Measurements as given in the supplement of paper PMC10307832.

Tests used:
Experiment in all cases: relative viability (nuclei count vs DMSO), 5 days (fraction); higher = more cells survive
[1] = compound: Cn1cncc1[C@@](N)(c1ccc(Cl)cc1)c1ccc2c(c1)c(-c1cccc(Cl)c1)cc(=O)n2C [Tipifarnib] + N=C(N)NC(=N)NCCc1ccccc1 [Phenformin] (partner 250 µM)
Method in brief: (§1)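 Five library-drug doses in √10 steps were combined with a fixed anchor-drug dose, or a single drug was given alone, by pin tool to lung cancer cell lines in 1536-well plates the day after seeding. Nuclei were stained and counted after 5 days. Relative viability is the nuclei count in treated wells over that in vehicle wells, taken as the median of duplicate plates.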

[2] = compound: Cn1cncc1[C@@](N)(c1ccc(Cl)cc1)c1ccc2c(c1)c(-c1cccc(Cl)c1)cc(=O)n2C [Tipifarnib] + NC(=O)Nc1cc(-c2cccc(F)c2)sc1C(=O)N[C@H]1CCCNC1 [AZD7762] (partner 0.2 µM)
Method in brief: as §1

[3] = compound: Cn1cncc1[C@@](N)(c1ccc(Cl)cc1)c1ccc2c(c1)c(-c1cccc(Cl)c1)cc(=O)n2C [Tipifarnib] + Cc1nc(NC(=O)N2CCC[C@H]2C(N)=O)sc1-c1ccnc(C(C)(C)C(F)(F)F)c1 [Alpelisib] (partner 2 µM)
Method in brief: as §1

[4] = compound: Cn1cncc1[C@@](N)(c1ccc(Cl)cc1)c1ccc2c(c1)c(-c1cccc(Cl)c1)cc(=O)n2C [Tipifarnib] + CS(=O)(=O)N1CCN(Cc2cc3nc(-c4cccc5[nH]ncc45)nc(N4CCOCC4)c3s2)CC1 [Pictilisib] (partner 1 µM)
Method in brief: as §1

Cell Line | relative viability ([1]; first compound 0.01 µM) | relative viability ([1]; first compound 0.03162 µM) | relative viability ([1]; first compound 0.1 µM) | relative viability ([1]; first compound 0.3162 µM) | relative viability ([1]; first compound 1 µM) | relative viability ([2]; first compound 0.01 µM) | relative viability ([2]; first compound 0.03162 µM) | relative viability ([2]; first compound 0.1 µM) | relative viability ([2]; first compound 0.3162 µM) | relative viability ([2]; first compound 1 µM) | relative viability ([3]; first compound 0.01 µM) | relative viability ([3]; first compound 0.03162 µM) | relative viability ([3]; first compound 0.1 µM) | relative viability ([3]; first compound 0.3162 µM) | relative viability ([3]; first compound 1 µM) | relative viability ([4]; first compound 0.01 µM) | relative viability ([4]; first compound 0.03162 µM) | relative viability ([4]; first compound 0.1 µM) | relative viability ([4]; first compound 0.3162 µM) | relative viability ([4]; first compound 1 µM)
NCI-H441 | 0.984 | 0.619 | 0.465 | 0.525 | 0.329 | 1.21 | 0.904 | 0.938 | 0.723 | 0.598 | 0.712 | 1.06 | 0.54 | 0.307 | 0.379 | 0.489 | 0.461 | 0.463 | 0.328 | 0.212
NCI-H460 | 0.516 | 0.376 | 0.295 | 0.224 | 0.0277 | 0.575 | 0.618 | 0.282 | 0.237 | 0.118 | 0.572 | 0.527 | 0.198 | 0.115 | 0.0453 | 0.42 | 0.396 | 0.379 | 0.275 | 0.126
NCI-H596 | 0.801 | 0.745 | 0.663 | 0.574 | 0.658 | 1.1 | 1.09 | 1.08 | 0.822 | 0.776 | 0.516 | 0.547 | 0.0161 | 0.436 | 0.356 | 0.392 | 0.365 | 0.354 | 0.373 | 0.312
NCI-H647 | 0.499 | 0.353 | 0.469 | 0.262 | 0.114 | 0.405 | 0.48 | 0.308 | 0.116 | 0.0944 | 1.05 | 0.822 | 0.838 | 0.44 | 0.488 | 0.403 | 0.416 | 0.364 | 0.406 | 0.167
NCI-H650 | 0.411 | 0.419 | 0.419 | 0.408 | 0.277 | 1.39 | 1.17 | 0.77 | 0.667 | 0.429 | 1.07 | 0.988 | 0.827 | 0.661 | 0.6 | 1.14 | 0.746 | 0.647 | 0.557 | 0.351
NCI-H727 | 0.529 | 0.501 | 0.544 | 0.617 | 0.539 | 0.613 | 0.608 | 0.519 | 0.504 | 0.571 | 0.683 | 0.516 | 0.569 | 0.496 | 0.513 | 0.625 | 0.438 | 0.484 | 0.389 | 0.444
NCI-H838 | 0.547 | 0.504 | 0.421 | 0.44 | 0.389 | 1.01 | 0.965 | 0.905 | 0.836 | 0.851 | 1.02 | 0.777 | 0.712 | 0.553 | 0.659 | 0.404 | 0.368 | 0.324 | 0.3 | 0.279
NCI-H1355 | 0.427 | 0.44 | 0.429 | 0.403 | 0.344 | 0.833 | 0.707 | 0.517 | 0.473 | 0.478 | 0.874 | 0.804 | 0.678 | 0.518 | 0.599 | 0.439 | 0.401 | 0.356 | 0.301 | 0.293
